What was measured:
[1] = test system: purified MHC molecules (28 common HLA DP, DQ and DR alleles); assay: HLA class II competition binding assay (inhibition of radiolabeled ligand binding); parameters: species or system human; conditions: alleles bound at <1000 nM threshold
Procedure: Peptides predicted to bind most (≥75%) of the alleles, were experimentally verified in HLA-II binding assays^31. For each peptide, the number of alleles that bound at a <1000 nM threshold level was tabulated. Top 20 promiscuous binders (bind >50% of reference alleles) were selected for further study (FIG. 9A, Table 2).
Next, the capacity of these peptides to bind 28 common HLA alleles (27 from the reference set plus DPB1*03:01) was determined experimentally using classical competition assays based on the inhibition of binding of high affinity radiolabeled ligands to purified MHC molecules^3. Under the conditions utilized, where [radiolabeled peptide] is <[MHC], and [MHC]<[inhibitor peptide], the measured IC50 values, defined as the concentrations of inhibitor peptide that inhibits the binding of the radiolabeled ligand by 50%, are reasonable estimates of true Kd values.

[2] = test system: AIM+ and AIM− CD4+ T cells from peptide-expanded PBMCs; assay: TCRβ CDR3 sequencing (immunoSEQ) of sorted AIM+ and AIM− CD4+ T cells; format: cell-based, human; conditions: for Log10 Odds Ratio: AIM+ vs AIM−;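 as to all read-outs here: genomic DNA from sorted cells as template, amplification bias-controlled two-step multiplex PCR, APOB6 pool at 10 µg/ml per peptide, CD40 blocking antibody added before restimulation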
Procedure: To examine the clonotypic identities of autoreactive CD4^+ T cells, the hypervariable TCRβ DR3 region was sequenced using a DNA-based sequencing technique^42 (Adaptive Biotechnologies), which have been used to profile clonal populations of other self-antigen specific T cells^43. PBMCs from six HLA-typed donors (demographics and HLA-II alleles in Tables 5, 6) were expanded (14-days) and restimulated (24 h) with the APOB6 pool. To isolate viable responder and non-responder CD4^+ T cells from the same pool of stimulated PBMCs (schematic in FIG. 15A, gating strategy in FIG. 151B), the inventors used the AIM assay protocol (FIGS. 2A to 2D).
As a second control, unexpanded PBMCs (day 0 samples), sorted into naïve, central memory (TCM) and effector memory (TEM) CD4^+ T cells, were used (gating strategy in FIG. 15C). This allowed tracing the APOB6-specific AIM^+ T cell clones in naïve and memory T cell lineages. Genomic DNA, isolated from sorted AIM^− and AIM^+ Day 14 samples and naïve, TCM and TEM Day 0 samples from six donors, was used as the starting material for TCRVβ sequencing (schematic in FIG. 15A) using an optimized two-step, amplification bias-controlled multiplex-PCR-based approach^42,44 (immunoSEQ Human TCRB Assay, Adaptive Biotechnologies).
For isolation of APOB epitope-specific CD4^+ T cells, PBMCs were expanded with the APOB6pool (10 μg/ml per peptide). On Day 14, cultured cells were washed and re-stimulated with APOB6 (10 μg/ml) for 24 h (AIM assay protocol). 1 μg/ml of CD40 blocking antibody was added 15 min before stimulation. At the end of the stimulation period, cells were washed with FACS buffer (PBS w/o Ca/Mg, 2% FCS). Day 14 (APOB6 expanded and restimulated) and Day 0 (ex vivo samples with no in vitro stimulation) PBMC samples from six donors were resuspended in a staining master mix containing anti-human Fc-Block (Biolegend), fixable viability dye and antibodies against T cell and non-T cell (Dump) surface markers, activation markers and memory markers (antibody details in Table 4). Viability dye was used at 1:1000 dilution, antibodies were used at a final dilution of 1:100 (activation markers) and 1:200 (other extracellular markers). […] Gates were set based on unstimulated and PHA-L stimulated negative and positive controls, respectively. Antigen-specific AIM^+ and non-specific control AIM^− CD4^+ T cells from Day 14 samples and naïve (CD45RA^+CCR7^+), central memory (CD45RA^−CCR7^+, TCM) and effector memory (CD45RA^−CCR7^−, TEM) CD4^+ T cells from Day 0 PBMCs were sorted into HEPES-containing buffer (PBS with 2% FBS and 0.025 M HEPES) using BD FACSAria flow cytometry sorters. Acquired data was analyzed with FlowJo software.
Genomic DNA was extracted from sorted cells using QIAamp DNA Micro Kit (QIAGEN) and sent to Adaptive Biotechnologies for survey-level TCRβ sequencing (depth ˜60,000 reads) using their established immunoSEQ platform^7. Briefly, highly variable CDR3 regions on somatically rearranged human TCRβ chains were amplified with a two-step multiplex PCR approach using optimized set of primers that target the VDJ region spanning each unique CDR3B. A synthetic repertoire containing all possible V/J templates is used as a built-in control to quantify and correct PCR amplification biases. Processing of raw Illumina sequence reads, filtering, demultiplexing, clustering and mapping of CDR3 sequences and annotation of VDJ genes using IMGT database sequences were performed at Adaptive Biotechnologies and made available for download and analysis.

[3] = Donor 4, PBMCs expanded 14 days and restimulated 24 h with APOB6
[4] = Donor 3, PBMCs expanded 14 days and restimulated 24 h with APOB6
[5] = Donor 1, PBMCs expanded 14 days and restimulated 24 h with APOB6
[6] = Donor 5, PBMCs expanded 14 days and restimulated 24 h with APOB6
[7] = Donor 2, PBMCs expanded 14 days and restimulated 24 h with APOB6
[8] = Donor 6, PBMCs expanded 14 days and restimulated 24 h with APOB6

In the case of FLHYIFMENAFELPT [Peptide 3], the “No. of HLA-II alleles bound” value [1] is reported as 24.
With KIVSLIKNLLVALKD [Peptide 20] the “No. of HLA-II alleles bound” value [1] was 20.
SLFFSAQPFEITAST [Peptide 13] was tested, and the “No. of HLA-II alleles bound” value [1] was 23.
For KFTYLINYIQDEINT [Peptide 18], the “No. of HLA-II alleles bound” value [1] was 19.
For QLYSKFLLKAEPLAF [Peptide 8], the “No. of HLA-II alleles bound” value [1] was 27.
For IKHIYAISSAALSAS [Peptide 6], the “No. of HLA-II alleles bound” value [1] was 20.
In the case of LEVLNFDFQANAQLS [Peptide 12], the “No. of HLA-II alleles bound” value [1] is reported as 18.
In the case of VGSKLIVAMSSWLQK [Peptide 5], the “No. of HLA-II alleles bound” value [1] is reported as 21.
In the case of ILFSYFQDLVITLPF [Peptide 17], the “No. of HLA-II alleles bound” value [1] is reported as 17.
For HFSNVFRSVMAPFTM [Peptide 7], the “No. of HLA-II alleles bound” value [1] was 22.
GKIDFLNNYALFLSP [Peptide 14] was tested, and the “No. of HLA-II alleles bound” value [1] was 23.
In the case of LSQLQTYMIQFDQYI [Peptide 9], the “No. of HLA-II alleles bound” value [1] is reported as 17.
“CASSELGTRPNEQFF: TCRβ CDR3 clone, TCRBV10-01+TCRBJ02-01, Donor 4” was tested, and the “Log10 Odds Ratio” value ([2]; Donor 4) was 2.76, the “No. of clone-specific productive templates, AIM+ CD4+ T (Total 25796)” value [2, 3] was 558 and the “No. of clone-specific productive templates, AIM− CD4+ T (Total 25928)” value [2, 3] was 1.
With “CSARADGQGYGYTF: TCRβ CDR3 clone, TCRBV20-X+TCRBJ01-02, Donor 3” the “Log10 Odds Ratio” value ([2]; Donor 3) was 1.73, the “No. of clone-specific productive templates, AIM+ CD4+ T (Total 16700)” value [2, 4] was 996 and the “No. of clone-specific productive templates, AIM− CD4+ T (Total 21770)” value [2, 4] was 26.
With “CASSLALGTGDTEAFF: TCRβ CDR3 clone, TCRBV05-01+TCRBJ01-01, Donor 1” the “Log10 Odds Ratio” value ([2]; Donor 1) was 2.98, the “No. of clone-specific productive templates, AIM+ CD4+ T (Total 21697)” value [2, 5] was 410 and the “No. of clone-specific productive templates, AIM− CD4+ T (Total 49956)” value [2, 5] was 1.
With “CASIRPGLNYGYTF: TCRβ CDR3 clone, TCRBV06-05+TCRBJ01-02, Donor 3” the “Log10 Odds Ratio” value ([2]; Donor 3) was 1.08, the “No. of clone-specific productive templates, AIM+ CD4+ T (Total 16700)” value [2, 4] was 436 and the “No. of clone-specific productive templates, AIM− CD4+ T (Total 21770)” value [2, 4] was 48.
In the case of “CASSPQPSTDTQYF: TCRβ CDR3 clone, TCRBV07-08+TCRBJ02-03, Donor 4”, the “Log10 Odds Ratio” value ([2]; Donor 4) is reported as 1.60, the “No. of clone-specific productive templates, AIM+ CD4+ T (Total 25796)” value [2, 3] is reported as 431 and the “No. of clone-specific productive templates, AIM− CD4+ T (Total 25928)” value [2, 3] is reported as 11.
In the case of “CASSPGREPGNTIYF: TCRβ CDR3 clone, TCRBV07-09+TCRBJ01-03, Donor 5”, the “Log10 Odds Ratio” value ([2]; Donor 5) is reported as 0.57, the “No. of clone-specific productive templates, AIM+ CD4+ T (Total 31354)” value [2, 6] is reported as 422 and the “No. of clone-specific productive templates, AIM− CD4+ T (Total 48987)” value [2, 6] is reported as 179.
For “CASSAMVEQPQHF: TCRβ CDR3 clone, TCRBV06-X+TCRBJ01-05, Donor 4”, the “Log10 Odds Ratio” value ([2]; Donor 4) was 0.55, the “No. of clone-specific productive templates, AIM+ CD4+ T (Total 25796)” value [2, 3] was 1709 and the “No. of clone-specific productive templates, AIM− CD4+ T (Total 25928)” value [2, 3] was 503.
With “CASSLAGTGTNEQFF: TCRβ CDR3 clone, TCRBV05-01+TCRBJ02-01, Donor 1” the “Log10 Odds Ratio” value ([2]; Donor 1) was 2.97, the “No. of clone-specific productive templates, AIM+ CD4+ T (Total 21697)” value [2, 5] was 396 and the “No. of clone-specific productive templates, AIM− CD4+ T (Total 49956)” value [2, 5] was 1.
For “CASSSLTPEAYGYTF: TCRβ CDR3 clone, TCRBV28-01+TCRBJ01-02, Donor 2”, the “Log10 Odds Ratio” value ([2]; Donor 2) was 2.21, the “No. of clone-specific productive templates, AIM+ CD4+ T (Total 18591)” value [2, 7] was 796 and the “No. of clone-specific productive templates, AIM− CD4+ T (Total 7206)” value [2, 7] was 2.
YKKLRTSSFALNLPT [Peptide 16] was tested, and the “No. of HLA-II alleles bound” value [1] was 21.
With “CATSEGGRGRGPGELFF: TCRβ CDR3 clone, TCRBV24-01+TCRBJ02-02, Donor 6” the “Log10 Odds Ratio” value ([2]; Donor 6) was 2.58, the “No. of clone-specific productive templates, AIM+ CD4+ T (Total 34927)” value [2, 8] was 292 and the “No. of clone-specific productive templates, AIM− CD4+ T (Total 45364)” value [2, 8] was 1.
With “CSVLQHEQYF: TCRβ CDR3 clone, TCRBV29-01+TCRBJ02-07, Donor 4” the “Log10 Odds Ratio” value ([2]; Donor 4) was 0.49, the “No. of clone-specific productive templates, AIM+ CD4+ T (Total 25796)” value [2, 3] was 466 and the “No. of clone-specific productive templates, AIM− CD4+ T (Total 25928)” value [2, 3] was 153.
For “CASSPDFSGANVLTF: TCRβ CDR3 clone, TCRBV05-06+TCRBJ02-06, Donor 6”, the “Log10 Odds Ratio” value ([2]; Donor 6) was 2.17, the “No. of clone-specific productive templates, AIM+ CD4+ T (Total 34927)” value [2, 8] was 339 and the “No. of clone-specific productive templates, AIM− CD4+ T (Total 45364)” value [2, 8] was 3.
For “CSAREPHDTSTDTQYF: TCRβ CDR3 clone, TCRBV20-X+TCRBJ02-03, Donor 2”, the “Log10 Odds Ratio” value ([2]; Donor 2) was 11.98, the “No. of clone-specific productive templates, AIM+ CD4+ T (Total 18591)” value [2, 7] was 338 and the “No. of clone-specific productive templates, AIM− CD4+ T (Total 7206)” value [2, 7] was 0.

Source: US20260000710A1, “Novel Treatments for Cardiovascular Related Disease” (priority 2022, published 2026)
